Measured values taken from patent US10653666B1, “Cardioprotective nano-pharmaceutical formulation” (King Abdulaziz University, priority 2020, dated 2020).

What was measured:
Assay type in all cases: in vivo, rat
[1] = tested on: MetS animals (high-fructose high-salt diet); experiment: Invasive real-time cardiac contractility recording in metabolic syndrome rats; settings: vs MetS; for Cardiac contractility (contractility index): oral 25 mg/kg/day in the last 6 weeks of 12 weeks diet
Protocol: (§1) Rats used in this study were male Wistar 6-8 weeks old rats weighing 180-200 g (King Fand Medical Research Center, King Abdulaziz University, Jeddah, Saudi Arabia). Clear polypropylene cages were used to house 4 rats each and included access to purified water and standard rodent pellets. Constant animal housing conditions applied constituting of alternating 12 hours light and dark, a temperature of 22±3° C., a relative humidity of 50-60% and adequate ventilation. Experimental protocol was approved by the Research Ethical Committee, Faculty of Pharmacy, King Abdulaziz University, Jeddah, Saudi Arabia and was conducted in accordance with the Saudi Arabia Research Bioethics and Regulations.
Animals were randomly divided into 5 experimental groups; Control (C) rats received regular tap water and food pellets. MetS group (M) in which fructose (10%) was added to drinking water and NaCl (3%) to food pellets. This regimen began in 6-week old rats and continued for 12 weeks. Standard quercetin group (MQ) administered 25 mg/kg quercetin suspension every day in the last 6 weeks of fructose and salt administration. Nano formula vehicle group (MN) received the same volumes of SNEDDS ingredients (Pumpkin seed oil, D-α-tocopheryl polyethylene glycol succinate (TPGS) and PEG 200) without quercetin every day in the last 6 weeks of fructose and salt administration. The nanoformula group (MNQ) administered 25 mg/kg of quercetin in the form of nano-pharmaceutical formulation every day in the last 6 weeks of fructose and salt administration.
Invasive real-time recording of cardiac contractility was carried out according to the method described in previous publication from our laboratories (El-Bassossy et al., 2017). After urethane anaethesia, animals were placed on controlled heating pads, and body temperature, measured via a rectal probe, was maintained at 37° C. A microtip pressure transducer (SPR-320; Millar Instruments, Houston, Tex., USA) was inserted into the right carotid artery and advanced into the left ventricle under pressure control. After stabilization for 5 min, the signals were continuously recorded at a sampling rate of 1000 s−1. The microtip catheter was connected to a PowerLab Data Interface Module connected to a PC running LabChart professional software (version 7.3; ADI Instruments, Bella Vista, Australia) containing a blood pressure module.

[2] = tested on: MetS animals (high-fructose high-salt diet); experiment: Cardiac conductivity (surface ECG) recording in metabolic syndrome rats; settings: oral 25 mg/kg/day in the last 6 weeks, vs MetS, p<0.05
Protocol: Rats used in this study were male Wistar 6-8 weeks old rats weighing 180-200 g (King Fand Medical Research Center, King Abdulaziz University, Jeddah, Saudi Arabia). Clear polypropylene cages were used to house 4 rats each and included access to purified water and standard rodent pellets. Constant animal housing conditions applied constituting of alternating 12 hours light and dark, a temperature of 22±3° C., a relative humidity of 50-60% and adequate ventilation. Experimental protocol was approved by the Research Ethical Committee, Faculty of Pharmacy, King Abdulaziz University, Jeddah, Saudi Arabia and was conducted in accordance with the Saudi Arabia Research Bioethics and Regulations. Animals were randomly divided into 5 experimental groups; Control (C) rats received regular tap water and food pellets. MetS group (M) in which fructose (10%) was added to drinking water and NaCl (3%) to food pellets. This regimen began in 6-week old rats and continued for 12 weeks. Standard quercetin group (MQ) administered 25 mg/kg quercetin suspension every day in the last 6 weeks of fructose and salt administration. […] The standard limb lead II of the surface ECG was recorded by the Powerlab system (ADI Instruments) connected to a PC running LabChart professional software (version 7.3) containing an ECG module, which detects different components of the ECG. […]

[3] = tested on: MetS animals (high-fructose high-salt diet); experiment: Blood pressure in metabolic syndrome rats; settings: oral 25 mg/kg/day in the last 6 weeks, vs MetS, p<0.05
Protocol: as §1
Animals were randomly divided into 5 experimental groups; Control (C) rats received regular tap water and food pellets. MetS group (M) in which fructose (10%) was added to drinking water and NaCl (3%) to food pellets. […]
Invasive real-time recording of cardiac contractility was carried out according to the method described in previous publication from our laboratories (El-Bassossy et al., 2017). After urethane anaethesia, animals were placed on controlled heating pads, and body temperature, measured via a rectal probe, was maintained at 37° C. […] After stabilization for 5 min, the signals were continuously recorded at a sampling rate of 1000 s−1. […]

[4] = tested on: MetS animals (high-fructose high-salt diet); experiment: Overall protection from cardiovascular complication of metabolic syndrome in rats; settings: oral 25 mg/kg/day in the last 6 weeks
Protocol: Rats used in this study were male Wistar 6-8 weeks old rats weighing 180-200 g (King Fand Medical Research Center, King Abdulaziz University, Jeddah, Saudi Arabia). Clear polypropylene cages were used to house 4 rats each and included access to purified water and standard rodent pellets. Constant animal housing conditions applied constituting of alternating 12 hours light and dark, a temperature of 22±3° C., a relative humidity of 50-60% and adequate ventilation. Experimental protocol was approved by the Research Ethical Committee, Faculty of Pharmacy, King Abdulaziz University, Jeddah, Saudi Arabia and was conducted in accordance with the Saudi Arabia Research Bioethics and Regulations. Animals were randomly divided into 5 experimental groups; Control (C) rats received regular tap water and food pellets. MetS group (M) in which fructose (10%) was added to drinking water and NaCl (3%) to food pellets. This regimen began in 6-week old rats and continued for 12 weeks. Standard quercetin group (MQ) administered 25 mg/kg quercetin suspension every day in the last 6 weeks of fructose and salt administration. Nano formula vehicle group (MN) received the same volumes of SNEDDS ingredients (Pumpkin seed oil, D-α-tocopheryl polyethylene glycol succinate (TPGS) and PEG 200) without quercetin every day in the last 6 weeks of fructose and salt administration. […]

[5] = oral 25 mg/kg/day in the last 6 weeks, p<0.05

## O=c1c(O)c(-c2ccc(O)c(O)c2)oc2cc(O)cc(O)c12 [regular size quercetin, quercetin]
[1]; p<0.05, 25 mg/kg/day
  Cardiac contractility (contractility index): did not significantly affect
[1]; p<0.05, listed as suspension of quercetin, 25 mg/kg/day
  Cardiac contractility (contractility index): failed to affect
[1]; [5]
  Diastolic function (−dP/dt, dp/dt min): did not significantly affect
  Left ventricular systolic function (dP/dt max): did not significantly affect
[2]
  JT interval: did not significantly improve
  QTc interval: did not significantly improve
[3]
  Diastolic blood pressure (DBP): partially reduced
  Systolic blood pressure (SBP): partially reduced
[4]
  Cardiovascular function / cardioprotective effect (overall): failed to completely protect
